Test results: the NIST ThermoML archive (doi:10.1021/je501126j)

Tests used:
[1] = wn = mass fraction of the nth substance listed; conditions: 101 kPa, Liquid, Vibrating tube method
[2] = 101 kPa, Liquid, Vibrating tube method

CC(O)CN(C)C (stereo not drawn) [1-(dimethylamino)-2-propanol] + O
mass density [kg/m3], [1]
Conditions	298.15 K	303.15 K	308.15 K	313.15 K	318.15 K	323.15 K
w1 = 0.1	992.5	990.8	988.9	986.7	984.2	982.1
w1 = 0.2	989.5	987.2	984.6	981.9	979	976
w1 = 0.3	984.6	981.4	978	974.5	970.9	967.2
w1 = 0.4	976.7	972.8	968.7	964.6	960.5	956.3
w1 = 0.5	967.2	962.9	958.5	954.1	949.4	944.8
w1 = 0.55	958.7	954.2	949.7	945	940.4	935.6
w1 = 0.6	948.9	944.2	939.6	934.8	930	925.2
w1 = 0.71	929.1	924.3	919.5	914.7	909.8	904.9
w1 = 0.81	905.6	900.9	896	891.1	886.2	881.2
w1 = 0.91	876.5	871.1	866.9	862	857.1	852.1
w1 = 0.96	860.5	855.7	850.8	846	841	836.1
w1 = 1	845.2	840.4	835.6	830.7	825.9	820.9

CC(O)CN(C)C (stereo not drawn) [1-(dimethylamino)-2-propanol]
[2]
Conditions	mass density [kg/m3]
298.15 K	845.2
303.15 K	840.4
308.15 K	835.6
313.15 K	830.7
318.15 K	825.9
323.15 K	820.9
